Assay [1] concerns the target T1, human μ-opioid receptor (Homo sapiens, UniProt P35372).
T1 construct: expressed in transfected cells; host or cells: CHO-K1
In words: Human μ-opioid receptor radioligand assay ([3H]-DAMGO). The class given is binding. The settings on record: transfected CHO-K1 cell membranes, 1 nM [3H]-DAMGO, binding expressed as Ki; read-out: Mu binding activity. The method, then: Human μ-Opioid Receptor Radioligand Assay
To investigate binding properties of test compounds to human μ-opioid receptor, transfected CHO-K1 cell membranes and [^3H]-DAMGO (Perkin Elmer, ES-542-C), as the radioligand, were used. The assay was carried out with 20 μg of membrane suspension, 1 nM of [^3H]-DAMGO in either absence or presence of either buffer or 10 μM Naloxone for total and non-specific binding, respectively. Binding buffer contained Tris-HCl 50 mM, MgCl2 5 mM at pH 7.4. Plates were incubated at 27° C. for 60 minutes. After the incubation period, the reaction mix was then transferred to MultiScreen HTS, FC plates (Millipore), filtered and plates were washed 3 times with ice-cold 10 mM Tris-HCL (pH 7.4). Filters were dried and counted at approximately 40% efficiency in a MicroBeta scintillation counter (Perkin-Elmer) using EcoScint liquid scintillation cocktail. Preferably, transfected CHO-K1 cell membranes (20 μg) were incubated with 1 nM of [^3H]-DAMGO in assay buffer containing Tris-HCl 50 mM, MgCl2 5 mM at pH 7.4. NBS (non-specific binding) was measured by adding 10 μM Naloxone. The binding of the test compound was measured at five different concentrations. Plates were incubated at 27° C. for 60 minutes. After the incubation period, the reaction mix was then transferred to MultiScreen HTS, FC plates (Millipore), filtered and plates were washed 3 times with ice-cold 10 mM Tris-HCL (pH 7.4). Filters were dried and counted at approximately 40% efficiency in a MicroBeta scintillation counter (Perkin-Elmer) using EcoScint liquid scintillation cocktail.

The target in assay [2] is Human α2δ-1 subunit of Cav2.2 calcium channel (Homo sapiens, UniProt P54289). In words: Human α2δ-1 subunit of Cav2.2 calcium channel assay ([3H]-Gabapentin binding). The following applies: human α2δ-1 enriched membranes, 15 nM [3H]-Gabapentin, binding expressed as Ki; read-out: α2δ1 binding activity. The method, then:
Human α2δ-1 Subunit of Cav2.2 Calcium Channel Assay
Human α2δ-1 enriched membranes (2.5 μg) were incubated with 15 nM of radiolabeled [3H]-Gabapentin in assay buffer containing Hepes-KOH 10 mM, pH 7.4. NSB (non specific binding) was measured by adding 10 μM pregabalin. The binding of the test compound was measured at five different concentrations. After 60 min incubation at 27° C., binding reaction was terminated by filtering through Multiscreen GF/C (Millipore) presoaked in 0.5% polyethyleneimine in Vacuum Manifold Station, followed by 3 washes with ice-cold filtration buffer containing 50 mM Tris-HCl, pH 7.4. Filter plates were dried at 60° C. for 1 hour and 30 μl of scintillation cocktail were added to each well before radioactivity reading. Readings were performed in a Trilux 1450 Microbeta radioactive counter (Perkin Elmer).

Sequence of Human α2δ-1 subunit of Cav2.2 calcium channel (P54289 25-1103): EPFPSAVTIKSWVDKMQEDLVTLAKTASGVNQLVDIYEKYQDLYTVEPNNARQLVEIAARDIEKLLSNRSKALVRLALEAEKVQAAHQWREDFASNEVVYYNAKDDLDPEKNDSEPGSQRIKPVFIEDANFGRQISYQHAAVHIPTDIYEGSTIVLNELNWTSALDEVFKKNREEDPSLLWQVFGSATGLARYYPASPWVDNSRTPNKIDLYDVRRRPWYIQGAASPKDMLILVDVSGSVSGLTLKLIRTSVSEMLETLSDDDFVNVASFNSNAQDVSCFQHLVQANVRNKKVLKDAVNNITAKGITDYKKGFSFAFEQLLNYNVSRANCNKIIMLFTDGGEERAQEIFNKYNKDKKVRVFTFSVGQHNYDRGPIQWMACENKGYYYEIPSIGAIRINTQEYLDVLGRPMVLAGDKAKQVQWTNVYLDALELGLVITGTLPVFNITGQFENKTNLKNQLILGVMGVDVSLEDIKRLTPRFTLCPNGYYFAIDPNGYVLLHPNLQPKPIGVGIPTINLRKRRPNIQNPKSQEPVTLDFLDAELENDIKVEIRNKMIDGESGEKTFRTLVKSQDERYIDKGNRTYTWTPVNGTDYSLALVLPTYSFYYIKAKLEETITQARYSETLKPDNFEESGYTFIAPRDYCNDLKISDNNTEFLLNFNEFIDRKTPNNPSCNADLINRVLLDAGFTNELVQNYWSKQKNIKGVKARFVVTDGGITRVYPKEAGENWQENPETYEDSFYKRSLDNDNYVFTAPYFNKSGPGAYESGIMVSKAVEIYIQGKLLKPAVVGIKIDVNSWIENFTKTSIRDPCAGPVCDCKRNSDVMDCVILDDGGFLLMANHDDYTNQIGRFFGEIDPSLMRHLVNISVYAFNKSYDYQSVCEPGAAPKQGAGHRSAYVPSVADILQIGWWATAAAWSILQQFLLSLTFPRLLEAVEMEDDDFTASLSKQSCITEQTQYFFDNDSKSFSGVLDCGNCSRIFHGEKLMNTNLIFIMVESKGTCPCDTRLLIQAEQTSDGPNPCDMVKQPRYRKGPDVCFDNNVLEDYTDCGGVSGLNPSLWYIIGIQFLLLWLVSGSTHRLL
T1 sequence (P35372 whole entry): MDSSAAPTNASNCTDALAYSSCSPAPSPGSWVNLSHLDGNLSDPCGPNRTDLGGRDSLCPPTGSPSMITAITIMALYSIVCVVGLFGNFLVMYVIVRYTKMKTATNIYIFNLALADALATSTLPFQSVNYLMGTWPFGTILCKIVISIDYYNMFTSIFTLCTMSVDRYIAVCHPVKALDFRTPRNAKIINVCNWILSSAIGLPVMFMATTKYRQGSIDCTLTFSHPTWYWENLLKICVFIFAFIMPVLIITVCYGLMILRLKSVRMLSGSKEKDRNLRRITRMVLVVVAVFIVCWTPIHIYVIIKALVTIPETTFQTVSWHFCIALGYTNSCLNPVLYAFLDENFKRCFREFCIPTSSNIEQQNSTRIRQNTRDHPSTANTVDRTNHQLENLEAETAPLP

In the case of `CCOc1ccc(-n2nc3c(C4CCN(Cc5ncccc5F)CC4)nnc(C)c3c2C)c(F)c1` [Ex 48, 2-(4-Ethoxy-2-fluorophenyl)-7-(1-((3-fluoropyridin-2-yl)methyl)piperidin-4-yl)-3,4-dimethyl-2H-pyrazolo[3,4-d]pyridazine], the Ki in assay [1] is above 0.5 µM; in assay [2], 0.5 to 3 µM.
In the case of `CCOc1ccc(-n2nc3c(C4CCN(Cc5ncccc5C(F)(F)F)CC4)nnc(C)c3c2C)c(F)c1` [Ex 49, 2-(4-Ethoxy-2-fluorophenyl)-3,4-dimethyl-7-(1-((3-(trifluoromethyl)pyridin-2-yl)methyl)piperidin-4-yl)-2H-pyrazolo[3,4-d]pyridazine], the Ki in assay [1] was above 0.5 µM; in assay [2], 0.5 to 3 µM.
Taken in the same sequence, the figures for `CCOc1ccc(-n2nc3c(C4CCN(Cc5ncccc5OC)CC4)nnc(C)c3c2C)c(F)c1` [Ex 50, 2-(4-Ethoxy-2-fluorophenyl)-7-(1-((3-methoxypyridin-2-yl)methyl)piperidin-4-yl)-3,4-dimethyl-2H-pyrazolo[3,4-d]pyridazine] were above 0.5 µM and 0.5 to 3 µM.
The like results for `CCOc1ccc(-n2nc3c(C4CCN(Cc5ncccc5Cl)CC4)nnc(C)c3c2C)c(F)c1` [Ex 51, 7-(1-((3-Chloropyridin-2-yl)methyl)piperidin-4-yl)-2-(4-ethoxy-2-fluorophenyl)-3,4-dimethyl-2H-pyrazolo[3,4-d]pyridazine] were, in that order, above 0.5 µM and 0.5 to 3 µM.
For the compound `CCOc1ccc(-n2nc3c(C4CCN(Cc5cc(C(F)(F)F)ccn5)CC4)nnc(C)c3c2C)c(F)c1` [Ex 52, 2-(4-Ethoxy-2-fluorophenyl)-3,4-dimethyl-7-(1-((4-(trifluoromethyl)pyridin-2-yl)methyl)piperidin-4-yl)-2H-pyrazolo[3,4-d]pyridazine], the Ki in assay [1] was above 0.5 µM; in assay [2], 3 to 5 µM.
As to `CCOc1ccc(-n2nc3c(C4CCN(Cc5ccc(Cl)cn5)CC4)nnc(C)c3c2C)c(F)c1` [Ex 53, 7-(1-((5-Chloropyridin-2-yl)methyl)piperidin-4-yl)-2-(4-ethoxy-2-fluorophenyl)-3,4-dimethyl-2H-pyrazolo[3,4-d]pyridazine], the Ki in assay [1] is above 0.5 µM; in assay [2] it was 0.5 to 3 µM.
Taken in the same sequence, the figures for `CCOc1ccc(-n2nc3c(C4CCN(Cc5ccc(O)cn5)CC4)nnc(C)c3c2C)c(F)c1` [Ex 54, 6-((4-(2-(4-Ethoxy-2-fluorophenyl)-3,4-dimethyl-2H-pyrazolo[3,4-d]pyridazin-7-yl)piperidin-1-yl)methyl)pyridin-3-ol] were above 0.5 µM and 0.5 to 3 µM.
The like results for `CCOc1ccc(-n2nc3c(C4CCN(Cc5ccc(F)cn5)CC4)nnc(C)c3c2C)c(F)c1` [Ex 55, 2-(4-Ethoxy-2-fluorophenyl)-7-(1-((5-fluoropyridin-2-yl)methyl)piperidin-4-yl)-3,4-dimethyl-2H-pyrazolo[3,4-d]pyridazine] were, in that order, above 0.5 µM and 0.5 to 3 µM.
Turning to `CCOc1ccc(-n2nc3c(C4CCN(Cc5ccc(C(F)(F)F)cn5)CC4)nnc(C)c3c2C)c(F)c1` [Ex 56, 2-(4-Ethoxy-2-fluorophenyl)-3,4-dimethyl-7-(1-((5-(trifluoromethyl)pyridin-2-yl)methyl)piperidin-4-yl)-2H-pyrazolo[3,4-d]pyridazine], the values for the Ki in assay [1] and in assay [2] were above 0.5 µM and 0.5 to 3 µM, respectively.
Regarding `CCOc1ccc(-n2nc3c(C4CCN(CCc5ccncc5)CC4)nnc(C)c3c2C)c(F)c1` [Ex 57, 2-(4-Ethoxy-2-fluorophenyl)-3,4-dimethyl-7-(1-(2-(pyridin-4-yl)ethyl)piperidin-4-yl)-2H-pyrazolo[3,4-d]pyridazine], the results for the Ki in assay [1] and in assay [2] were above 0.5 µM and 0.5 to 3 µM, respectively.
With `CCOc1ccc(-n2nc3c(C4CCN(CC(O)c5ccccc5)CC4)nnc(C)c3c2C)c(F)c1` (stereo not drawn) [Ex 58, 2-(4-(2-(4-Ethoxy-2-fluorophenyl)-3,4-dimethyl-2H-pyrazolo[3,4-d]pyridazin-7-yl)piperidin-1-yl)-1-phenylethan-1-ol], the Ki in assay [1] was above 0.5 µM; in assay [2], 0.5 to 3 µM.
With `CCOc1ccc(-n2nc3c(C#N)nnc(C)c3c2C)c(F)c1` [Ex 59, 2-(4-Ethoxy-2-fluorophenyl)-3,4-dimethyl-2H-pyrazolo[3,4-d]pyridazine-7-carbonitrile], the figures for the Ki in assay [1] and in assay [2] were above 0.5 µM and at least 5 µM, respectively.
The like results for `CCOc1ccc(-n2nc3c(CN4CCC(c5cccc(O)c5)CC4)nnc(C)c3c2C)c(F)c1` [Ex 60, 3-(1-((2-(4-Ethoxy-2-fluorophenyl)-3,4-dimethyl-2H-pyrazolo[3,4-d]pyridazin-7-yl)methyl)piperidin-4-yl)phenol] were, in that order, above 0.5 µM and 0.5 to 3 µM.
Take `CCOc1ccc(-n2nc3c(C(C#N)C(=O)OC(C)(C)C)nnc(C)c3c2C)c(F)c1` (stereo not drawn) [Ex 61, tert-Butyl 2-cyano-2-(2-(4-ethoxy-2-fluorophenyl)-3,4-dimethyl-2H-pyrazolo[3,4-d]pyridazin-7-yl)acetate]: the Ki is above 0.5 µM in assay [1] and 0.5 to 3 µM in assay [2].
The like results for `CCOc1ccc(-n2nc3c(CC#N)nnc(C)c3c2C)c(F)c1` [Ex 62, 2-(2-(4-Ethoxy-2-fluorophenyl)-3,4-dimethyl-2H-pyrazolo[3,4-d]pyridazin-7-yl)acetonitrile] were, in that order, above 0.5 µM and 0.5 to 3 µM.
For `CCOc1ccc(-n2nc3c(CCNC(=O)OC(C)(C)C)nnc(C)c3c2C)c(F)c1` [Ex 63, tert-Butyl (2-(2-(4-ethoxy-2-fluorophenyl)-3,4-dimethyl-2H-pyrazolo[3,4-d]pyridazin-7-yl)ethyl)carbamate], the Ki in assay [1] is above 0.5 µM; in assay [2] it was at least 5 µM.
For `CCOc1ccc(-n2nc3c(C(C#N)(Cc4ccccc4)C(=O)OC(C)(C)C)nnc(C)c3c2C)c(F)c1` (stereo not drawn) [Ex 64, tert-Butyl 2-cyano-2-(2-(4-ethoxy-2-fluorophenyl)-3,4-dimethyl-2H-pyrazolo[3,4-d]pyridazin-7-yl)-3-phenylpropanoate], the Ki in assay [1] was above 0.5 µM; in assay [2], at least 5 µM.
As for `CCOc1ccc(-n2nc3c(C(C#N)Cc4ccccc4)nnc(C)c3c2C)c(F)c1` (stereo not drawn) [Ex 65, 2-(2-(4-Ethoxy-2-fluorophenyl)-3,4-dimethyl-2H-pyrazolo[3,4-d]pyridazin-7-yl)-3-phenylpropanenitrile], the Ki in assay [1] was above 0.5 µM; in assay [2], 0.5 to 3 µM.
